Test results published in patent US4965280A, “Antifungal carbinols” (E. I. Du Pont de Nemours and Company, priority 1989, dated 1990).
Converted amounts (≈) assume the structure as drawn. Where two headings read alike, the source gives them in different places.

Key:
[1] = tested on: Candida albicans ATCC 11651; test: In vivo systemic Candida infection in mice, primary assay; set-up: species or system Candida albicans; CF-1 female mice; conditions: Candida albicans, read-out: % Survival
Procedure, shortened: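 CF-1 female mice (20 g, 10 per group) were infected IV with 0.2 ml of 1×10^7/ml C. albicans ATCC 11651, then given test compound subcutaneously at 50 or 150 mg/kg/day at 1 and 6 h post-infection and once daily for three more days. Survival was followed for 21 days against infected untreated mice; ≥70% protection at 14 days was scored active.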

Venturia inaequalis = test: Example A apple scab; type: in vivo; conditions: read-out: disease control rating, Ex. A
Procedure, shortened: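 Spray application to run-off on apple seedlings; compound at 100 or 20 ppm in water with 250 ppm TREM 014 (polyhydric alcohol esters) and 6% acetone of final volume.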

[2] = tested on: Cercosporidium personatum; test: Example B Peanut Late Leafspot; type: in vivo; conditions: Nothopassalora personata, read-out: disease control rating, Ex. B
Procedure, shortened: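 Spray suspensions at 100 or 20 ppm, prepared from acetone solutions (acetone 6% of final volume) in water carrying 250 ppm of a polyhydric alcohol ester surfactant, were applied to peanut seedlings until run-off.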

Botrytis cinerea = test: Example C bean grey mold; type: in vivo; conditions: Botrytis cinerea, 24 h, read-out: disease control rating, Ex. C
Procedure, shortened: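 Spray rates: 100 and 20 ppm. Vehicle: purified water with 6% acetone by final volume plus 250 ppm TREM 014 (polyhydric alcohol esters). Host plants, broad bean seedlings, were wetted until run-off.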

[3] = tested on: Erysiphe graminis f. sp. tritici; test: Example D wheat powdery mildew; type: in vivo; conditions: Blumeria graminis, 144 h, read-out: disease control rating, Ex. D
Procedure, shortened: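 Seedling wheat was treated by spraying to run-off; formulation used acetone as co-solvent (6% final) and TREM 014 surfactant at 250 ppm, with compound at 100 or 20 ppm.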

Pyricularia oryzae = test: whole plant or invertebrate; type: in vivo; conditions: Pyricularia oryzae, 120 h; for pest or weed control at 100 ppm: read-out: disease control rating, Ex. E, 100 PPM
Rhizoctonia solani [4] = test: Example F rice sheath blight; type: in vivo; conditions: Rhizoctonia solani, 144 h, read-out: disease control rating, Ex. F
Procedure, shortened: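 Foliar run-off spray, rice seedlings: compound at 100 or 20 ppm in aqueous 250 ppm polyhydric alcohol ester surfactant, acetone 6% v/v final.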

Puccinia recondita = test: Example G wheat leaf rust; type: in vivo; conditions: read-out: disease control rating, Ex. G
Phytophthora infestans = test: whole plant or invertebrate; type: in vivo; conditions: Phytophthora infestans, in Solanum lycopersicum, read-out: disease control rating, Ex. H, 100 PPM
Plasmorpara viticola = test: Example I grape downy mildew; type: in vivo; conditions: read-out: disease control rating, Ex. I
Procedure, shortened: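 Compounds were dissolved in acetone (6% of final volume) and suspended at 100 or 20 ppm in purified water with 250 ppm TREM 014 surfactant (polyhydric alcohol esters). Grape seedlings were sprayed with this suspension to run-off.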

Pythium aphanadermatum = test: Example J cucumber damping off; type: in vivo; conditions: Pythium, 336 h; 5 kg/ha; read-out: disease control rating, Ex. J
Procedure, shortened: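 Seeds and soil were inoculated with a mix of sand, cereal and Pythium aphanadermatum mycelium, the fungus responsible for cucumber damping off. They were kept in a growth chamber at 30° C. for 14 days, and disease was then rated to assess control.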

Rhizoctonia solani [5] = test: Example K cotton blight; type: in vivo; conditions: 336 h, 5 kg/ha, read-out: disease control rating, Ex. K
Protocol: […] Seeds and soil were then inoculated with a mixture of sand, cereal and mycelium of the fungus Rhizoctonia solani, causal agent of cotton blight, and incubated in a growth chamber at 30° C. for 14 days. Disease ratings were then made.

[6] = tested on: Fusarium oxysporum f. sp. cucumerinum; test: Example L cucumber wilt; type: in vivo; conditions: 336 h, 5 kg/ha, read-out: disease control rating, Ex. L
Protocol: […] Seeds and soil were then inoculated with a mixture of sand, cereal and mycelium of the fungus Fusarium oxysporum f. sp. cucumerinum, causal agent of cucumber wilt, and incubated in a growth chamber at 30° C. for 14 days. Disease ratings were then made.

Sclerotium rolfsii = test: Example M southern blight; type: in vivo; conditions: Agroathelia rolfsii, 336 h; 5 kg/ha; read-out: disease control rating, Ex. M
Protocol: […] Seeds and soil were then inoculated with a mixture of sand, cereal and mycelium of the fungus Sclerotium rolfsii, causal agent of sourthern blight, and incubated in a growth chamber at 30° C. for 14 days. Disease ratings were then made.

[7] = tested on: Candida albicans ATCC 11651; test: In vitro antifungal MIC, microtiter broth dilution; conditions: Candida albicans, ATCC11651, 24 h, read-out: MIC values, C. albicans, 30°, 24 hours
Protocol: In vitro activity (Table 5) is expressed in terms of the minimal inhibitory concentration (MIC) of the test compound which inhibits the growth of yeasts and fungi.
The target organisms, Candida albicans ATCC 11651 and Aspergillus fumigatus ATCC 28214 are standardized, [V. Bezjak, J. Clinical Micro., 21 509-512 (1984)], to a concentration of 10^7 organisms/ml and maintained at -70° until use. Test compounds are solubilized in dimethyl sulfoxide (DMSO) and diluted in Eagle's Minimum Essential Medium (EMEM) broth to achieve a final concentration of 200 μg/ml. Stock solutions of standard antifungal agents are stored at -70° and diluted in EMEM as required.
The in vitro assay utilizes a microtiter broth dilution technique [L. Polonelli and G. Morace, Mycopathologia, 86, 21-28 (1984)] and C. […] The appropriate wells are inoculated with the required organism (C. albicans at 1×10^4 organisms/ml and A. fumigatus at 5×10^5 organisms/ml) and the assay incubated at 30° for 24 hours.

[8] = tested on: Aspergillus fumigatus ATCC 28214; test: In vitro antifungal MIC, microtiter broth dilution; conditions: Aspergillus fumigatus, ATCC28214, 24 h, read-out: MIC values, A. fumigatus, 30°, 24 hours
[9] = ATCC11651, 168 h, 150 mg/kg per day, day 7
[10] = ATCC11651, 336 h, 150 mg/kg per day, day 14
[11] = ATCC11651, 504 h, 150 mg/kg per day, day 21

Compound | responders at 150 mg/kg [1, 9] [%] | responders at 150 mg/kg [1, 10] [%] | responders at 150 mg/kg [1, 11] [%] | pest or weed control at 100 ppm (Venturia inaequalis) [%] | pest or weed control at 100 ppm [2] [%] | pest or weed control at 100 ppm (Botrytis cinerea) [%] | pest or weed control at 100 ppm [3] [%] | pest or weed control at 100 ppm (Pyricularia oryzae) [%] | pest or weed control at 100 ppm (Rhizoctonia solani [4]) [%] | pest or weed control at 100 ppm (Puccinia recondita) [%] | pest or weed control at 100 ppm (Phytophthora infestans) [%] | pest or weed control at 100 ppm (Plasmorpara viticola) [%] | pest or weed control at 5000 g/ha (Pythium aphanadermatum) [%] | pest or weed control at 5000 g/ha (Rhizoctonia solani [5]) [%] | pest or weed control at 5000 g/ha [6] [%] | pest or weed control at 5000 g/ha (Sclerotium rolfsii) [%] | MIC [7] [µg/mL] | MIC [8] [µg/mL] | also measured
C=C(c1ccc(C(F)(F)F)cc1)C(O)(Cn1cncn1)c1ccc(F)cc1 (stereo not drawn) [Example 65] | 100 | 70 | 50 | 34 | 96 | 94 | 85 | 30 | 62 | 100 | 0 | 0 | 0 | 0 | 0 | 0 | 0.2 (≈ 0.53 µM) | 100 (≈ 265 µM) | –
C=C(c1ccc(C(F)(F)F)cc1)C(O)(Cn1cncn1)c1ccc(Cl)cc1 (stereo not drawn) [Example 67] | 100 | 100 | 100 | – | – | 75 | – | 0 | 68 | – | 2 | 1 | 0 | 0 | 0 | 0 | 0.03 (≈ 0.0762 µM) | 100 (≈ 254 µM) | pest or weed control at 20 ppm (Venturia inaequalis; 20 PPM): 58%; pest or weed control at 20 ppm ([2]; 20 PPM): 99%; pest or weed control at 20 ppm (Botrytis cinerea; 20 PPM): 60%; pest or weed control at 20 ppm ([3]; 20 PPM): 85%; pest or weed control at 20 ppm (Pyricularia oryzae; read-out: disease control rating, Ex. E, 20 PPM): 0%; pest or weed control at 20 ppm (Rhizoctonia solani [4]; 20 PPM): 35%; pest or weed control at 20 ppm (Puccinia recondita; 20 PPM): 89%
C=C(c1cccc2ccccc12)C(O)(Cn1cncn1)c1ccc(F)cc1 (stereo not drawn) [Example 208] | 0 | 0 | 0 | 84 | 37 | 83 | 76 | 4 | 61 | 97 | 0 | 74 | 0 | 0 | 0 | 0 | 1.6 (≈ 4.45 µM) | 50 (≈ 139 µM) | –
C=C(c1ccc(F)cc1)C(Cn1cncn1)(OC)c1ccc(F)cc1 (stereo not drawn) [Example 359] | 100 | 80 | 80 | 72 | 100 | 83 | 95 | 88 | 62 | 100 | 0 | 0 | 0 | 0 | 0 | 0 | 0.4 (≈ 1.17 µM) | 50 (≈ 146 µM) | –
C=CCOC(Cn1cncn1)(C(=C)c1ccc(F)cc1)c1ccc(F)cc1 (stereo not drawn) [Example 360] | 100 | 60 | 40 | 88 | 100 | 71 | 86 | 74 | 49 | 93 | 0 | 0 | 0 | 0 | 0 | 0 | 0.8 (≈ 2.18 µM) | 100 (≈ 272 µM) | –
C=C(c1ccc(F)cc1)C(Cn1cncn1)(OC(=O)NC)c1ccc(F)cc1 (stereo not drawn) [Example 363] | – | – | – | 0 | 49 | 92 | 28 | 0 | 0 | 38 | 0 | 0 | 0 | 0 | 0 | 0 | 100 (≈ 260 µM) | 100 (≈ 260 µM) | responders at 150 mg/kg ([1]; ATCC11651, 168 h): 10%; responders at 150 mg/kg ([1]; ATCC11651, 336 h): 0%; responders at 150 mg/kg ([1]; ATCC11651, 504 h): 0%
C=C(CN(C)C)C(O)(Cn1cncn1)c1ccc(Cl)cc1Cl (stereo not drawn) [Example 453] | 60 | 40 | 30 | 55 | 32 | 75 | 94 | 0 | 0 | 100 | 0 | 0 | 0 | 0 | 0 | 0 | 1.6 (≈ 4.69 µM) | > 100 | –
C=C(c1ccc(F)cc1)C(O)(Cn1cncn1)c1ccccc1Cl (stereo not drawn) [Example 646] | 100 | 100 | 70 | 100 | 100 | 95 | 98 | 97 | 61 | 100 | 0 | 99 | 100 | 0 | 0 | 0 | 0.03 (≈ 0.0873 µM) | 0.4 (≈ 1.16 µM) | –
